Among the data in patent publication EP4180043A1, “RUTHENIUM COMPLEXES” (Universidad de Almeria, priority 2020, dated 2022) are IC50 values, retold here.

The term IC50 denotes the midpoint of a concentration-inhibition curve.

In this experiment the test system is cancer cells. Nature of the experiment: antiproliferative activity (anticancer properties). Format: cell-based. The note with it: cell line not stated; cisplatin in the same experiment; read-out: antiproliferative activity indicated by the cell survival half-life factor (IC50). On the procedure: Three examples of bi-heterometallic compounds which would be obtained from that compound present better activity as shown by their IC50: IC50 Ru-Zn: 9.07±0.27; IC50 Ru-Co: 5.40±0.19; IC50 Ru-Ni: 7.15±0.30 µM. Ru-Zn = [Ru(η^6-C10H14)(Cl2)-µ-dmoPTA-1κP:2κ^2N,N'-ZnCl2]. Ru-Co = [Ru(η^6-C10H14)(Cl2)-µ-dmoPTA-1κP:2κ^2N,N'-CoCl2]. Ru-Ni = [Ru(η^6-C10H14)(Cl2)-µ-dmoPTA-1κP:2κ^2N,N'-NiCl2].
Consider `N.N.[Cl][Pt][Cl]` [cisplatin, reference compound], for which the IC50 turned out to be 45.6 ± 8.08 µM. On to “[Ru(η^6-C10H14)(Cl2)-µ-dmoPTA-1κP:2κ^2N,N'-NiCl2] [Ru-Ni]”, for which the half-maximal inhibitory concentration (IC50) came to 7.15 ± 0.3 µM. In the case of “[Ru(η^6-C10H14)(Cl2)-µ-dmoPTA-1κP:2κ^2N,N'-CoCl2] [Ru-Co]”, the concentration for half-maximal inhibition (IC50) amounted to 5.4 ± 0.19 µM.

With “[Ru(η^6-C10H14)(Cl2)-µ-dmoPTA-1κP:2κ^2N,N'-ZnCl2] [Ru-Zn]”, the IC50 was found to be 9.07 ± 0.27 µM.

As to [Ru(η^6-C10H14)(Cl2)(HdmoPTA)](OSO2CF3), the concentration for half-maximal inhibition (IC50) was found to be 32.09 ± 0.3 µM.
